These results are taken from patent US6602853B1, “Antigenic peptides reacting with anti-ovary antibodies” (Bio Merieux, priority 1996, dated 2003).

Bridges are numbered along the chain shown (N, C = ends). Where no end group is shown, it is not given here.

Test [1] deals with anti-ovary antibodies (AOA). The experiment in a line: ELISA on 30 patient sera: correlation of serum reactivity toward crude ovarian antigen and toward each peptide (Example 2). It counts as binding, human. As to conditions: for r value, correlation between reactivity of sera toward ovarian antigen and toward the peptide, IgA AOA / r value, correlation between reactivity of sera toward ovarian antigen and toward the peptide, IgG AOA / r value, correlation between reactivity of sera toward ovarian antigen and toward the peptide, IgM AOA / correlation between reactivity of sera toward ovarian antigen and toward the antigen tested, in words: 30 sera from patients, ELISA; for r value, correlation between reactivity of sera toward ovarian antigen and toward the peptide, IgA AOA: isotype IgA; for r value, correlation between reactivity of sera toward ovarian antigen and toward the peptide, IgG AOA: isotype IgG; for r value, correlation between reactivity of sera toward ovarian antigen and toward the peptide, IgM AOA: isotype IgM; for antigenic or immunogenic activity toward anti-ovary antibodies, in words: comparison among oligopeptides, Example 2; for correlation between reactivity of sera toward ovarian antigen and toward the antigen tested, in words: compared among antigens. The procedure:
(§1) The concentration of molecules to be adsorbed was determined by checkerboard experiments for each antigen. It is about 1 μg per well.
(§2) The binding of the antigens to the solid phase is performed in one night at +4° C. in the amount of 100 μl per well of the solution of antigen in carbonate-bicarbonate buffer. The plate is emptied. The sites of the solid phase still unoccupied are saturated on incubation for one hour at 37° C. with 200 μl per well of 5% powdered milk reconstituted in PBS.
The plate is emptied and washed 3 times in PBS. The samples are distributed in the amount of 100 μl per well. The plate is incubated for 45 minutes at 37° C.
(§3) The anti-isotypes are diluted in the same solution that was used for the dilution of the samples:
(§4) The plate is again emptied and washed 3 times in PBS. Then the anti-isotypes are distributed in the amount of 100 μl per well. The plate is incubated for 45 minutes at 37° C.
(§5) The developer solution is prepared on the spot, as follows for one plate:
(§6) After 3 further washings of the plate, 100 μl of developer solution are distributed into each well. After appearance of a yellow colour of greater or lesser intensity the reaction is stopped with 50 μl of H2SO4. The plate is read on the spectrophotometer at 492 nm using the Multiskan II reader.
Any ratio greater than 1 is considered as positive.
These four peptides obtained in lyophilized form were, after reconstitution and dialysis, used as antigens in a series of ELISA tests on 30 sera from patients.
Moreover, these same sera were tested against the crude ovarian antigens.
The immunoenzymatic technique used is that described in Example 1.

A further test has as its system anti-ovary antibodies. The test can be described thus: Recognition by serums containing anti-ovary antibodies. It counts as binding.
For test [2], the system named is anti-β-FSH monoclonal antibody 7G5A1. The test can be described thus: Reaction with anti-β-FSH monoclonal antibody 7G5A1. In kind it is binding. As to conditions: antibody only recognizing metrodine.
Test [3] relates to anti-ovary antibodies (AOA). The experiment in a line: ELISA on 295 sera of IVF patients: correlation of reactivity toward total ovarian extract and toward peptide SEQ ID NO:1 (Example 3). It counts as binding, human. As to conditions: for r value, IgA AOA vs IgA SEQ ID No.1: crude ovarian antigen IgA vs peptide IgA. How it is done:
as §1, §2
The samples to be tested are diluted in PBS to which 0.5% BSA and 0.2% Tween 20 have been added: dilution to 1/50 for the search for anti-ovary and anti-corpus luteum antibodies. The plate is emptied and washed 3 times in PBS. The samples are distributed in the amount of 100 μl per well. The plate is incubated for 45 minutes at 37° C.
as §3, §4, §5, §6
The results are firstly expressed as optical density (O.D.) then calculated as ratios relative to a control sample at the limit of positivity. Any ratio greater than 1 is considered as positive.
[…] and ninety-five sera were tested in duplicate, using the immunoenzymatic method described above, with, firstly, the total ovarian extract, and, secondly, the peptide SEQ ID NO: 1. For each antigen, the three immunoglobulin isotypes IgG, IgA and IgM were studied.
The patients included in the study were all scheduled for IVF. Their average age was 32.7±4.2 years. The average duration of the sterility was 4.8±2.8 years.
In 209 cases the serum was collected on the eighth day of the stimulation, and in 84 cases the serum was collected 15 days after the puncture.
The results of the correlation obtained between the reactivity of the sera toward the crude ovarian antigen and that of the same sera toward the peptide SEQ ID NO:1 tested, and expressed by an r value, are shown in Table II below: […]
A general note: An ELISA detects its analyte on a solid surface through an enzyme-linked reagent.

Test [4] concerns anti-β-FSH monoclonal antibodies 22A3G7; 5H3E8. The experiment in a line: Recognition by anti-β-FSH monoclonal antibodies 22A3G7 and 5H3E8. In kind it is binding. Particulars: antibodies immunoreactive with metrodine and ovarian extracts.

For “SEQ ID No.3: sequence of 16 amino acids, bridged by a disulfide bond in position 5 and 10, amino acids 78-93 of the β-chain of FSH (VATQCHCGKCDSDSTD; disulfide 5-10)”, in test [1], the “r value, correlation between reactivity of sera toward ovarian antigen and toward the peptide, IgA AOA” value amounted to 0.49; the “r value, correlation between reactivity of sera toward ovarian antigen and toward the peptide, IgG AOA” value was determined as 0.79; the “r value, correlation between reactivity of sera toward ovarian antigen and toward the peptide, IgM AOA” value is on record as 0.71; the “antigenic or immunogenic activity toward anti-ovary antibodies, in words” value is on record as “weaker activity”.

For “SEQ ID No.1: linear sequence of 16 amino acids corresponding to the sequence of amino acids 78-93 of the β-chain of FSH (VATQCHCGKCDSDSTD; human FSH)”, in the test on anti-ovary antibodies, the “recognition by serums containing anti-ovary antibodies” value is on record as “recognized”. Besides, the “reaction with anti-β-FSH monoclonal antibody 7G5A1” value in test [2] is recorded as “does not react”. In test [1], the “correlation between reactivity of sera toward ovarian antigen and toward the antigen tested, in words” value (from here on “correlation between reactivity … in words”) is reported as “best correlation coefficients”; the “r value, correlation between reactivity of sera toward ovarian antigen and toward the peptide, IgA AOA” value came out at 0.46; the “r value, correlation between reactivity of sera toward ovarian antigen and toward the peptide, IgG AOA” value was 0.74; the “r value, correlation between reactivity of sera toward ovarian antigen and toward the peptide, IgM AOA” value is listed as 0.81. In addition, the “antigenic or immunogenic activity toward anti-ovary antibodies, in words” value in test [1] was “identical activity”. Also, the “r value, IgA AOA vs IgA SEQ ID No.1” value in test [3] is on record as 0.11. Besides, the “r value, IgA AOA vs IgA SEQ ID No.1” value in test [3] (listed as SEQ ID NO:1) worked out at 0.10. Also, the “r value, IgA AOA vs IgG SEQ ID No.1” value in test [3] (crude ovarian antigen IgA vs peptide IgG) is given as 0.12. The “r value, IgA AOA vs IgM SEQ ID No.1” value in test [3] (crude ovarian antigen IgA vs peptide IgM) was 0.01. The “r value, IgG AOA vs IgA SEQ ID No.1” value in test [3] (crude ovarian antigen IgG vs peptide IgA) was 0.12. Moreover, the “r value, IgG AOA vs IgG SEQ ID No.1” value in test [3] (crude ovarian antigen IgG vs peptide IgG) worked out at 0.18. In test [3] (crude ovarian antigen IgM vs peptide IgA), the “r value, IgM AOA vs IgA SEQ ID No.1” value is 0.06. Further, in test [3] (crude ovarian antigen IgM vs peptide IgG), the “r value, IgM AOA vs IgG SEQ ID No.1” value was 0.10. Moreover, in test [3] (crude ovarian antigen IgM vs peptide IgM), the “r value, IgM AOA vs IgM SEQ ID No.1” value turned out to be 0.27. Moreover, the “recognition by anti-β-FSH monoclonal antibodies 22A3G7; 5H3E8” value in test [4] was “recognized”.

As for “SEQ ID No.4: sequence of 16 amino acids, bridged by a disulfide bond in position 7 and 10, amino acids 78-93 of the β-chain of FSH (VATQCHCGKCDSDSTD; disulfide 7-10)”, in test [1], the “r value, correlation between reactivity of sera toward ovarian antigen and toward the peptide, IgA AOA” value is recorded as 0.49; the “r value, correlation between reactivity of sera toward ovarian antigen and toward the peptide, IgG AOA” value was found to be 0.59; the “r value, correlation between reactivity of sera toward ovarian antigen and toward the peptide, IgM AOA” value worked out at 0.69; the “antigenic or immunogenic activity toward anti-ovary antibodies, in words” value is “weaker activity”.

Turning to “TQCHCGKC (cysteine pairing not given here) [SEQ ID No.5]”, in the test with anti-ovary antibodies, the “recognition by serums containing anti-ovary antibodies” value is “recognized”. The “reaction with anti-β-FSH monoclonal antibody 7G5A1” value in test [2] is reported as “does not react”. Moreover, in test [1], the “correlation between reactivity … in words” value is recorded as “same results as those obtained for the peptide SEQ ID No.1”; the “antigenic or immunogenic activity toward anti-ovary antibodies, in words” value was “identical activity”. Also, in test [4], the “recognition by anti-β-FSH monoclonal antibodies 22A3G7; 5H3E8” value is “recognized”.

Turning to “SEQ ID No.2: sequence of 16 amino acids, bridged by a disulfide bond in position 5 and 7, amino acids 78-93 of the β-chain of FSH (VATQCHCGKCDSDSTD; disulfide 5-7)”, in test [1], the “r value, correlation between reactivity of sera toward ovarian antigen and toward the peptide, IgA AOA” value is 0.28; the “r value, correlation between reactivity of sera toward ovarian antigen and toward the peptide, IgG AOA” value is recorded as 0.44; the “r value, correlation between reactivity of sera toward ovarian antigen and toward the peptide, IgM AOA” value stood at 0.75; the “antigenic or immunogenic activity toward anti-ovary antibodies, in words” value was “weaker activity”.

B1: β-chain of FSH: β-chain (β-subunit) of follicle stimulating hormone (protein)
chain: NSCELTNITIAIEKEECRFCISINTTWCAGYCYTRDLVYKDPARPKIQKTCTFKELVYETVRVPGCAHHADSLYTYPVATQCHCGKCDSDSTDCTVRGLGPSYCSFGEMKE
With B1, the “correlation between reactivity … in words” value in test [1] was “same results as those obtained for the peptide SEQ ID No.1”.
